Measured values taken from paper PMC8041284, “Tunable Methacrylamides for Covalent Ligand Directed Release Chemistry” (Journal of the American Chemical Society, 2021).

Target: BTK (Homo sapiens, UniProt Q06187)
Experiment: biochemical
Settings: read-out: BTK inhibition (%), 0.75 uM BTK, […] probe 3l, 15 min preincubation

Sequence of BTK (Q06187 402-655 limits assumed): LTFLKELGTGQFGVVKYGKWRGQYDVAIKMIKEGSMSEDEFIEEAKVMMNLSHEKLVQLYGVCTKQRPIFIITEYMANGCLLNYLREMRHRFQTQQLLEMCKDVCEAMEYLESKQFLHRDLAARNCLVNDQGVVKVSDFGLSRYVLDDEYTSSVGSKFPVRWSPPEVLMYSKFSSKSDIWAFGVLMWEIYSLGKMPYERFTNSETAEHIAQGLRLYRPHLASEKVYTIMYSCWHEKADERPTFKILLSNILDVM

SMILES | inhibition at 10 µM
COC(=O)[C@@H](N)CCCN=C(N)N[N+](=O)[O-] [PCM-0215172] | 19.6%
COC(=O)N[C@H](C(=O)N[C@@H](Cc1ccccc1)[C@@H](O)CN(Cc1ccc(-c2ccccn2)cc1)NC(=O)[C@@H](NC(=O)OC)C(C)(C)C)C(C)(C)C [PCM-0095133] | -10.9%
CC[C@]12C=CCN3CC[C@@]4(c5ccc(OC)cc5N(C)[C@H]4[C@@](O)(C(=O)OC)[C@@H]1OC(C)=O)[C@@H]32 [PCM-0215165] | 6.2%
CC(C)OC(=O)C(C(=O)OC(C)C)=C1SC=CS1 [PCM-0094945] | 3.9%
NC(=O)N/N=C/c1ccc([N+](=O)[O-])o1 [PCM-0085977] | 0.8%
Cc1cccc(-c2[nH]c(C(C)(C)C)nc2-c2ccc3c(c2)OCO3)n1 [PCM-0095234] | 9.3%
CC(C)(C)c1nc(-c2cccc(NS(=O)(=O)c3c(F)cccc3F)c2F)c(-c2ccnc(N)n2)s1 [PCM-0095418] | 39.3%
COc1ccc(-c2cc(=O)c3c(OC)c(OC)c(OC)c(OC)c3o2)cc1OC [PCM-0091108] | 2.3%
NC(=O)c1cnc(N[C@@H]2CCCC[C@@H]2N)nc1Nc1cccc(-n2nccn2)c1 [PCM-0095619] | 70.3%
O=C(O)COCCN1CCN([C@H](c2ccccc2)c2ccc(Cl)cc2)CC1 [PCM-0215119] | -6.2%
CC(C)c1cc(C(=O)N2Cc3ccc(CN4CCN(C)CC4)cc3C2)c(O)cc1O [PCM-0095012] | -6.2%
CCCCCCCC/C=C\CCCCCCCCCCCC(=O)O [PCM-0216153] | -64.9%
Clc1ccc(C(Cn2ccnc2)OCc2ccsc2Cl)c(Cl)c1 (centres unmarked) [PCM-0085844] | -41.2%
COc1cccc2c1c(O)c(C(=O)N(C)c1ccc(C(F)(F)F)cc1)c(=O)n2C [PCM-0215368] | -27.8%
CC(=O)O[C@@H]1C[C@@]23C[C@@]24CC[C@H](O[C@@H]2OC[C@@H](O)[C@H](O)[C@H]2O)C(C)(C)[C@@H]4CC=C3[C@]2(C)C[C@@H]3OC4(C[C@@H](C)[C@@H]3[C@@]12C)OC(O)C1(C)OC41 (some centres unmarked) [PCM-0216175] | -6.2%
O=C(/C=C/C=C/c1ccccc1)CCc1ccccc1 [PCM-0216550] | 4.6%
CC(=O)NC(CC(C)C)C(=O)O (centres unmarked) [PCM-0214817] | 1.6%

SMILES | inhibition at 10 µM
OC(c1cc(-c2ccc(Cl)cc2)nc2ccccc12)C1CCCCN1 (centres unmarked) [PCM-0215603] | 19.3%
NC(N)=N/N=C/c1c(Cl)cccc1Cl [PCM-0065199] | -2.3%
O=C(c1cn(Cc2cncn2Cc2ccc(Br)cc2)cc1-c1cccc2ccccc12)N1CCOCC1 [PCM-0215301] | -4.6%
COc1cc2ncnc(Oc3cccc(NC(=O)Nc4cc(C(C)(C)C(F)(F)F)on4)c3)c2cc1OC [PCM-0095605] | 4.1%
Cc1nc2ccc(NC(=O)Nc3ccnc4cccnc34)cc2o1 [PCM-0215431] | -18.5%
CC1(C)C2CCC1(C)C(O)C2 (centres unmarked) [PCM-0214868] | 1.6%
C#C[C@]1(O)CC[C@H]2[C@@H]3CCc4cc(OC)ccc4[C@H]3CC[C@@]21C [PCM-0214662] | 8.6%
CC(C)(C)NCC(O)c1cc(O)cc(O)c1 (centres unmarked) [PCM-0064743] | -26.4%
O=C(O)c1ccccc1 [PCM-0090294] | -1.6%
Cc1ccc(S(=O)(=O)NC(=O)NN2CC3CCCC3C2)cc1 (centres unmarked) [PCM-0086156] | -2.3%
NCCCC[C@H](NC(=O)[C@@H]1CCCN1C(=O)[C@@H]1CSSC[C@H](N)C(=O)N[C@@H](Cc2ccc(O)cc2)C(=O)N[C@@H](Cc2ccccc2)C(=O)N[C@@H](CCC(N)=O)C(=O)N[C@@H](CC(N)=O)C(=O)N1)C(=O)NCC(N)=O [PCM-0216267] | -19.6%
CN1CCCN(C(=O)c2cccc(-c3ccc(/C=C4/C(=O)Nc5ccc(Cl)cc54)o3)c2)CC1 [PCM-0215321] | 26.9%
COc1cc2c(cc1O)C[C@H]1c3cc(O)c(OC)cc3CC[N+]1(C)C2 (some centres unmarked) [PCM-0216444] | 2.3%
Cc1nn(C)c2c1C(c1ccc(C(F)(F)F)cc1)C(C#N)=C(N)O2 (centres unmarked) [PCM-0215442] | -6.9%
Cc1ccc(NC(=O)Nc2cc(C(F)(F)F)ccc2F)cc1Nc1ccc2c(c1)NC(=O)/C2=C\c1ccc[nH]1 [PCM-0215372] | 116%
Cn1ncc(Cl)c1-c1cc(C(=O)N[C@H](CN)Cc2ccc(F)c(F)c2)oc1Cl [PCM-0215609] | -7.6%
CC(C)(O)CNc1ncc(-c2ccnc(Nc3ccnc(Cl)c3)n2)c(CC2CC2)n1 [PCM-0215614] | -14.5%

Results, then the molecule that gave them:

inhibition at 10 µM | SMILES
11.1% | CCC(C)CC(C)CCCCCCCCC(=O)N[C@H]1C[C@@H](O)[C@@H](NCCN)NC(=O)[C@@H]2[C@@H](O)CCN2C(=O)[C@H]([C@H](O)CCN)NC(=O)[C@H]([C@H](O)[C@@H](O)c2ccc(O)cc2)NC(=O)[C@@H]2C[C@@H](O)CN2C(=O)[C@H]([C@@H](C)O)NC1=O (some centres unmarked) [PCM-0215354]
32.4% | Cc1c(CN2CCC(Nc3ncnc4sc(CC(F)(F)F)cc34)CC2)ccc2[nH]c(C#N)cc12 [PCM-0215775]
-12.4% | CO[C@H]1C[C@@H]2CC[C@@H](C)[C@@](O)(O2)C(=O)C(=O)N2CCCC[C@H]2C(=O)O[C@H]([C@H](C)C[C@@H]2CC[C@@H](OCCO)[C@H](OC)C2)CC(=O)[C@H](C)/C=C(\C)[C@@H](O)[C@@H](OC)C(=O)[C@H](C)C[C@H](C)/C=C/C=C/C=C/1C [PCM-0214563]
-2.3% | NS(=O)(=O)c1cc(C(=O)O)c(NCc2ccco2)cc1Cl [PCM-0085991]
11.7% | Cc1cccc(-c2nn3c(c2-c2ccnc4ccc(C(N)=O)cc24)CCC3)n1 [PCM-0095269]
16.3% | CO/N=C1\C[C@]2(C[C@@H]3C[C@@H](C/C=C(\C)C[C@@H](C)/C=C/C=C4\CO[C@@H]5[C@H](O)C(C)=C[C@@H](C(=O)O3)[C@]45O)O2)O[C@H](/C(C)=C/C(C)C)[C@H]1C [PCM-0214892]
7.7% | O=C(Nc1ncc([N+](=O)[O-])s1)c1ccccc1O [PCM-0216250]
13.1% | O=c1[nH]c(=O)c2ncn([C@@H]3O[C@H](CO)[C@@H](O)[C@H]3O)c2[nH]1 [PCM-0216292]
-14.5% | Cc1c(F)cc(C(=O)NC2CC2)cc1-c1ccc(C(=O)NCC(C)(C)C)cn1 [PCM-0095751]
-2.8% | O=c1[nH]ccc2c(S(=O)(=O)N3CCCNCC3)cccc12 [PCM-0215797]
-22.1% | CC(=O)N[C@@H]1[C@@H](O[C@@H]2O[C@H](C(=O)O)[C@@H](O)[C@H](O)[C@H]2O)[C@@H](O)[C@@H](OS(=O)(=O)O)O[C@H]1O [PCM-0215884]
-10.8% | O=C(NO)c1cnc(NC2(c3ccccc3)CC2)nc1 [PCM-0215891]
52.5% | C[C@@H]1O[C@@H](O[C@H]2[C@H](O[C@H]3CC[C@@]4(C)[C@@H](CC[C@]5(C)[C@@H]4CC=C4[C@@H]6CC(C)(C)CC[C@]6(C(=O)O)CC[C@]45C)[C@]3(C)CO)OC[C@H](O[C@@H]3O[C@H](CO)[C@@H](O)[C@H](O)[C@H]3O)[C@@H]2O)[C@H](O)[C@H](O)[C@H]1O [PCM-0216539]
-8.5% | CCOc1ccccc1N=Nc1c(C)[nH]n(-c2nc(-c3ccccc3)cs2)c1=O [PCM-0215207]
75.2% | Cc1c(CN2CCN(C(=O)[C@H](C)O)CC2)sc2c(N3CCOCC3)nc(-c3cnc(N)nc3)nc12 [PCM-0095406]
17.8% | CCOC(=O)/C=C/c1ccc(O)c(O)c1 [PCM-0216571]
-3.1% | COc1ccccc1N1CCN(CCN2C(=O)CC3(CCCC3)CC2=O)CC1 [PCM-0064586]
34.2% | O=c1cc(-c2ccccc2)oc2cc(O)cc(O)c12 [PCM-0088446]
85.5% | O=C(Nc1cccc(Nc2ncc(Br)c(NCCc3cnc[nH]3)n2)c1)N1CCCC1 [PCM-0095062]

inhibition at 10 µM | SMILES
10.1% | CCOC(=O)c1c(CSc2ccccc2)n(C)c2cc(Br)c(O)c(CN(C)C)c12 [PCM-0095296]
-9.7% | COc1ccc(F)c(F)c1C(=O)c1cnc(NC2CCN(S(C)(=O)=O)CC2)nc1N [PCM-0095383]
-17.9% | O=C(O)CCCN1CCC(O[C@@H](c2ccc(Cl)cc2)c2ccccn2)CC1 [PCM-0214802]
-40.9% | C[Si](C)(C)CCOCn1ccc2c(-c3cn[nH]c3)ncnc21 [PCM-0216552]
-2.3% | C[C@@H](O)[C@H]1C(=O)N2C(C(=O)O)=C([C@H]3CCCO3)S[C@H]12 [PCM-0215154]
10.1% | O=C(O)C1=C[C@@H](O)[C@@H](O)[C@H](O)C1 [PCM-0094809]
57.9% | CCN(CC)C[C@@H](O)CNc1ccc(NC[C@H]2CO2)c2c1C(=O)c1ccccc1C2=O [PCM-0215722]
-15.3% | N[C@@H]1CCCCN(c2c(F)cc3c(=O)c(C(=O)O)cn(C4CC4)c3c2Cl)C1 [PCM-0095545]
-15.6% | Nc1nc2c(ncn2COCCO)c(=O)[nH]1 [PCM-0064530]
24.1% | O=C(O)c1cccnc1Nc1cccc(C(F)(F)F)c1 [PCM-0064877]
-1.5% | O=C(O)[C@@]1(CCCCCCOc2ccc(Cl)cc2)CO1 [PCM-0215742]
18.7% | C=C1C(=O)O[C@H]2[C@H]1CC/C(C)=C/CC[C@@]1(C)O[C@@H]21 [PCM-0214682]
5.4% | C[C@H]1O[C@@H](O[C@H]2CC[C@@]3(C)[C@@H](CC[C@]4(C)[C@@H]3C=C[C@]35OC[C@@]6(CCC(C)(C)C[C@H]63)[C@H](O)C[C@]54C)[C@]2(C)CO)[C@H](O)[C@@H](O[C@@H]2O[C@H](CO)[C@@H](O)[C@H](O)[C@H]2O)[C@H]1O [PCM-0216171]
36.6% | COc1cc2nccc(Oc3ccc(NC(=O)NC4CC4)c(Cl)c3)c2cc1C(N)=O [PCM-0095014]
29% | CCN(CC)CCNC(=O)c1c(C)[nH]c(/C=C2\C(=O)Nc3ccc(-c4csc(-c5ccccc5)n4)cc32)c1C [PCM-0215844]
86.2% | O=C(c1ccc(Nc2nccc(-c3cc4ccccc4s3)n2)cc1)N1CCC(N2CCCC2)CC1 [PCM-0095335]
1.6% | Cc1nc2ccc(CN(C)c3ccc(C(=O)N[C@@H](CCC(=O)O)C(=O)O)s3)cc2c(=O)[nH]1 [PCM-0095076]
-17.1% | COC(=O)c1cc(OC)c(O)c(OC)c1 [PCM-0215058]
